Reference: patent US8476233B2, “Methods for treatment for ulcerative colitis in mammals” (Therapeutic Research, LLC, priority 2003, dated 2013)
Like-named read-outs stand apart in the source and are kept apart here.

Columns and labels:
[1] = tested on: mitochondrial electron transport chain (whole chain respiration); settings: same study as cigarette tar; cited from earlier work
colonic mucosa = settings: rats, 3% solution, cited from earlier work
[2] = tested on: glutathione peroxidase (GPx); settings: cited from earlier work
ulcerative colitis = assay: Example 3: patient's response to earlier therapies; format: in vivo, human; settings: patient history before the treatment of the invention
Excerpt: The recurrences occurred every 3-5 months.

CN1CCCC1c1cccnc1 (stereo not shown) [nicotine]
effect on electron transport activity [1]: no effect

OO [hydrogen peroxide]
extent of mucosal inflammation above the anus (colonic mucosa; 5 hours after injection): 5 cm
extent of mucosal inflammation above the anus (colonic mucosa; by one week): 9 cm
colonic outcome of rectal injection (colonic mucosa; rectal injection): acute and chronic ulcerative colitis

N[C@@H](CCS)C(=O)O [Homocysteine, homocysteine]
inhibition of glutathione peroxidase (GPx) activity ([2]; Outinen et al., 1999): 10 fold
concentration of free homocysteine at which inhibition of GPx occurs ([2]; physiologic concentration, Chen, 2000): 9 µmol/L

C[C@]12C=CC(=O)C=C1CC[C@@H]1[C@@H]2C(=O)C[C@@]2(C)[C@H]1CC[C@]2(O)C(=O)CO [prednisone]
clinical response of ulcerative colitis episodes to earlier therapy (ulcerative colitis): improved for a few months
